In ChEMBL document CHEMBL4765293, “Specific stabilization of promoter G-Quadruplex DNA by 2,6-disubstituted amidoanthracene-9,10-dione based dimeric distamycin analogues and their selective cancer cell cytotoxicity” (Eur J Med Chem, 2020):
Active and inactive are the calls of the source. The calls are words filed in the database; no cut-off is given here.

Columns and labels:
[1] = test system: Quadruplex DNA; assay: Binding affinity to c-Myc G4-quadruplex DNA (unknown origin) by UV- vis spectrophotometric analysis; assay type: nucleic-acid assay
[2] = test system: Quadruplex DNA; assay: Binding affinity to human c-KIT1 G4-quadruplex DNA (unknown origin) by UV- vis spectrophotometric analysis; assay type: nucleic-acid assay
[3] = test system: Quadruplex DNA; assay: Binding affinity to c-KIT2 G4-quadruplex DNA (unknown origin) by UV- vis spectrophotometric analysis; assay type: nucleic-acid assay
[4] = test system: Quadruplex DNA; assay: Binding affinity to Human telomeric H21 G4 quadruplex DNA (unknown origin) in presence of KCl by UV- vis spectrophotometric analysis; assay type: nucleic-acid assay
[5] = test system: Quadruplex DNA; assay: Binding affinity to human telomeric H21 G4 quadruplex DNA in presence of NaCl by UV- vis spectrophotometric analysis; assay type: nucleic-acid assay
[6] = test system: Calf thymus DNA; assay: Binding affinity to calf thymus duplex DNA by UV- vis spectrophotometric analysis; assay type: nucleic-acid assay; details: Bos taurus
[7] = Binding affinity to c-MYC ds DNA (unknown orgin) by UV- vis spectrophotometric analysis
[8] = Selectivity index, binding affinity to c-MYC G4 quadruplex DNA (unknown origin) to binding affinity c-MYC ds DNA (unknown origin)
[9] = test system: Quadruplex DNA; assay: Binding affinity to c-MYC G4 quadruplex (unknown origin) assessed as increase in fluorescence intensity at 0.2 uM by fluorescence spectroscopic analysis; assay type: nucleic-acid assay
[10] = test system: Quadruplex DNA; assay: Binding affinity to c-MYC G4-quadruplex DNA (unknown origin) assessed as fluorescence life time by fluorescence spectroscopic analysis relative to compound alone group; assay type: nucleic-acid assay
[11] = test system: Quadruplex DNA; assay: Binding affinity to c-MYC G4-quadruplex DNA (unknown orgin) assessed as slight change in ellipticity of the CD signatures and topology by circular dichroism spectroscopy; assay type: nucleic-acid assay
[12] = test system: Quadruplex DNA; assay: Binding affinity to human telomeric H21 G4-quadruplex DNA assessed as slight change in ellipticity of the CD signatures and topology in presence KCl of by circular dichroism spectroscopy; assay type: nucleic-acid assay
[13] = test system: Quadruplex DNA; assay: Binding affinity to human telomeric H21 G4-quadruplex DNA assessed as slight change in ellipticity of the CD signatures and topology in presence NaCl of by circular dichroism spectroscopy; assay type: nucleic-acid assay
[14] = test system: Calf thymus DNA; assay: Binding affinity to calf thymus duplex DNA assessed as slight change in ellipticity of the CD signatures and topology by circular dichroism spectroscopy; assay type: nucleic-acid assay; details: Bos taurus
[15] = organism: Homo sapiens; assay: Binding affinity to c-MYC ds DNA (unknown origin) assessed as slight change in ellipticity of the CD signatures and topology by circular dichroism spectroscopy
[16] = test system: Quadruplex DNA; assay: Binding affinity to c-MYC G4-quadruplex DNA (unknown orgin) assessed increase in melting temperature measured after 12 hrs by thermal denaturation based spectrophotometric analysis; assay type: nucleic-acid assay
[17] = test system: Quadruplex DNA; assay: Binding affinity to c-KIT1 G4-quadruplex DNA (unknown orgin) assessed increase in melting temperature measured after 12 hrs by thermal denaturation based spectrophotometric analysis; assay type: nucleic-acid assay
[18] = test system: Quadruplex DNA; assay: Binding affinity to c-KIT2 G4-quadruplex DNA (unknown orgin) assessed increase in melting temperature measured after 12 hrs by thermal denaturation based spectrophotometric analysis; assay type: nucleic-acid assay
[19] = test system: Quadruplex DNA; assay: Binding affinity to c-MYC G4-quadruplex DNA (unknown orgin) at 100 uM by ethidium bromide displacement assay; assay type: nucleic-acid assay
[20] = test system: Quadruplex DNA; assay: Induction of stabilization of c-MYC G-quadruplex DNA template sequence (unknown orgin) assessed as inhibition of Taq polymerase mediated DNA polymerization at high concentration in presence K+ measured after 30 mins by Taq DNA polymerase stop assay; assay type: nucleic-acid assay
[21] = test system: NIH3T3; assay: Cytotoxicity against mouse NIH3T3 cells assessed as cell viability incubated for 72 hr by MTT assay; assay type: cell-based; details: NIH3T3, 72 h
[22] = Cytotoxicity against human HDFa cells assessed as cell viability incubated for 72 hr by MTT assay; assay type: cell-based
[23] = test system: HEK-293T; assay: Cytotoxicity against human HEK293T cells assessed as cell viability incubated for 72 hr by MTT assay; assay type: functional, cell-based
[24] = test system: HeLa; assay: Cytotoxicity against human HeLa cells assessed as cell viability incubated for 72 hr by MTT assay; assay type: functional, cell-based
[25] = test system: HeLa; assay: Induction of apoptotic cell death in human HeLa cells assessed as change in nuclear morphology at 5 to 7 uM after 12 hrs by acridine orange/ethidium bromide staining based fluorescence microscopy; assay type: functional; details: dose 5-7 µM
[26] = test system: HeLa; assay: Induction of apoptosis in human HeLa cells assessed as nuclear condensation and fragmentation at 7 uM measured after 24 hrs by DAPI staining based confocal laser scanning microscopy analysis; assay type: functional, cell-based
[27] = test system: Quadruplex DNA; assay: Binding affinity to c-KIT1 G4 quadruplex (unknown origin) assessed as increase in fluorescence intensity at 0.2 uM by fluorescence spectroscopic analysis; assay type: nucleic-acid assay
[28] = test system: Quadruplex DNA; assay: Binding affinity to c-KIT2 G4 quadruplex (unknown origin) assessed as increase in fluorescence intensity at 0.2 uM by fluorescence spectroscopic analysis; assay type: nucleic-acid assay
[29] = test system: Quadruplex DNA; assay: Binding affinity to human telomeric H21 G4 quadruplex DNA in presence of KCl assessed as increase in fluorescence intensity at 0.2 uM by fluorescence spectroscopic analysis; assay type: nucleic-acid assay
[30] = test system: Quadruplex DNA; assay: Binding affinity to human telomeric H21 G4 quadruplex DNA in presence of NaCl assessed as increase in fluorescence intensity at 0.2 uM by fluorescence spectroscopic analysis; assay type: nucleic-acid assay
[31] = test system: Quadruplex DNA; assay: Binding affinity to c-MYC G4 quadruplex DNA (unknown orgin) by cyclic voltammetry; assay type: nucleic-acid assay
[32] = test system: HeLa; assay: Induction of apoptotic cell death in human HeLa cells assessed as change in nuclear morphology at 3 to 5 uM after 12 hrs by acridine orange/ethidium bromide staining based fluorescence microscopy; assay type: functional; details: dose 3-5 µM
[33] = test system: HeLa; assay: Induction of apoptosis in human HeLa cells assessed as nuclear condensation and fragmentation at 5 uM measured after 24 hrs by DAPI staining based confocal laser scanning microscopy analysis; assay type: functional, cell-based
[34] = test system: HeLa; assay: Induction of apoptosis in human HeLa cells at 100 uM after 24 to 48 hrs by annexin V/PI- staining based flow cytometric analysis; assay type: functional, cell-based; details: time 24-48 hrs
[35] = test system: HeLa; assay: Induction of apoptosis in human HeLa cells at 7 uM after 24 to 48 hrs by annexin V/PI- staining based flow cytometric analysis; assay type: functional, cell-based
[36] = test system: HeLa; assay: Induction of apoptosis in human HeLa cells at 5 uM after 24 to 48 hrs by annexin V/PI- staining based flow cytometric analysis; assay type: functional, cell-based
[37] = test system: HeLa; assay: Induction of apoptotic cell death in human HeLa cells assessed as morphological changes from the spindle-shaped cells to round-shaped at 50 to 200 uM measured after 24 hrs by acridine orange/ethidium bromide staining based fluorescence microscopy; assay type: functional; details: dose 50-200 µM
[38] = test system: HeLa; assay: Induction of apoptotic cell death in human HeLa cells assessed as morphological changes from the spindle-shaped cells to round-shaped at 2 to 10 uM measured after 24 hrs by acridine orange/ethidium bromide staining based fluorescence microscopy; assay type: functional

SMILES | Ka [1] | Ka [2] | Ka [3] | Ka [4] | Ka [5] | Ka [6] | Ka [7] | Selectivity Index [8] | Activity [9] | Time [10] | ΔTm [16] | ΔTm [17] | ΔTm [18] | Activity [20] | IC50 [21] | IC50 [22] | Activity [27] | Activity [28] | Activity [29] | Activity [30] | also measured
Cn1cc(NC(=O)c2cccn2C)cc1C(=O)NCCC[N+](C)(C)CC(=O)Nc1ccc2c(c1)C(=O)c1ccc(NC(=O)C[N+](C)(C)CCCNC(=O)c3cc(NC(=O)c4cccn4C)cn3C)cc1C2=O | 2.8 10^6/M | 1.3 10^6/M | 1.8 10^6/M | 0.3 10^6/M | 0.6 10^6/M | 0.016 10^6/M | 0.018 10^6/M | 175 | Active | 0.55 nanoseconds | 7.4 °C | 7.9 °C | 5.1 °C | Active | > 100 µM | > 100 µM | Active | Active | Active | Active | Activity [11]: Active; Activity [12]: Active; Activity [13]: Active; Activity [14]: Active; Activity [15]: Active; Activity [19]: Active; IC50 [23]: 19 µM; IC50 [24]: 7.4 µM; Activity [25]: Active; Activity [26]: Active
Cn1cc(NC(=O)c2cc(NC(=O)c3cccn3C)cn2C)cc1C(=O)NCCC[N+](C)(C)CC(=O)Nc1ccc2c(c1)C(=O)c1ccc(NC(=O)C[N+](C)(C)CCCNC(=O)c3cc(NC(=O)c4cc(NC(=O)c5cccn5C)cn4C)cn3C)cc1C2=O | 3.8 10^6/M | 3.1 10^6/M | 4.1 10^6/M | 1.1 10^6/M | 0.6 10^6/M | 0.01 10^6/M | 0.012 10^6/M | 380 | Active | 0.37 nanoseconds | 11.1 °C | 9.9 °C | 6.8 °C | Active | > 100 µM | > 100 µM | Active | Active | Active | Active | Activity [31]: Active; Activity [11]: Active; Activity [12]: Active; Activity [13]: Active; Activity [14]: Active; Activity [15]: Active; Activity [19]: Active; IC50 [23]: 15 µM; IC50 [24]: 5.3 µM; Activity [32]: Active; Activity [33]: Active
Cn1cccc1C(=O)NCCC[N+](C)(C)CC(=O)Nc1ccc2c(c1)C(=O)c1ccc(NC(=O)C[N+](C)(C)CCCNC(=O)c3cccn3C)cc1C2=O.[Cl-].[Cl-] | 1.4 10^6/M | 0.6 10^6/M | 0.8 10^6/M | 0.5 10^6/M | 0.6 10^6/M | 0.02 10^6/M | 0.025 10^6/M | 70 | Active | 0.54 nanoseconds | 3.2 °C | 4.7 °C | 1.2 °C | Active | > 100 µM | > 100 µM | Active | Active | Active | Active | IC50 [23]: 43 µM; IC50 [24]: > 100 µM; Activity [34]: Active; AC50 [35]: Active; AC50 [36]: Active; Activity [37]: Active; AC50 [38]: Active
C[N+](C)(C)CC(=O)Nc1ccc2c(c1)C(=O)c1ccc(NC(=O)C[N+](C)(C)C)cc1C2=O | 0.16 10^6/M | 0.11 10^6/M | 0.09 10^6/M | 0.07 10^6/M | 0.05 10^6/M | 0.06 10^6/M | 0.05 10^6/M | 3.2 |  |  |  |  |  |  |  |  | Active | Active | Active | Active | 
